# Measurements from patent US20250243171A1, “QUINAZOLINE COMPOUNDS FOR TREATMENT OF DISEASE” (Arthrosi Therapeutics, Inc., priority 2021, published 2025).
# Tests used:
# Experiment in all cases: EC50 assay: Ba/F3 stable cell proliferation (CCK-8, 72 h)
# Assay type in all cases: cell-based
# [1] = molecular target: T1, Ba/F3 stable cells (Homo sapiens, UniProt P00533, DUP767-769, cells depend on it); conditions: Ba/F3-EGFR V769-D770insASV cells
# T1 construct: EC50 Ba/F3-EGFR V769-D770insASV; other: Ba/F3-EGFR V769-D770insASV cells, 72 h, CCK-8
# Procedure: (§1) 4,000 Ba/F3 stable cells/90 μL/well were plated onto 96-well cell culture plate (Grenier, Cat.No. 655180) and incubated at 37° C. with a humidified atmosphere of 5% CO2 for 2 h. Then the cells were treated with 10 μL compounds at serial titration. The final DMSO concentration is 0.1%. The cells treated with 0.1% DMSO (Vetec, Cat.No.V900090) as a positive control (Max), and medium with 0.1% DMSO was as a negative control (Min). Incubated the cells at 37° C. for 72 h. 10 μL the cell proliferation reagent CCK-8 (Dojindo, Cat.No. CK04 1000T) was added into each well and incubated the plate at 37° C. for 4 hours, the GD value was measured by SPECTRAmax plus (Molecular Devices) at 450 nm. Data processing with Graphpad 7.0.
# [2] = molecular target: T2, Ba/F3 stable cells (Homo sapiens, UniProt P00533, DUP768-770, cells depend on it); conditions: Ba/F3-EGFR D770-N771insSVD cells
# T2 construct: EC50 Ba/F3-EGFR D770-N771insSVD; other: Ba/F3-EGFR D770-N771insSVD cells, 72 h, CCK-8
# T2 sequence (P00533 with tags, fused parts or gaps DUP768-770): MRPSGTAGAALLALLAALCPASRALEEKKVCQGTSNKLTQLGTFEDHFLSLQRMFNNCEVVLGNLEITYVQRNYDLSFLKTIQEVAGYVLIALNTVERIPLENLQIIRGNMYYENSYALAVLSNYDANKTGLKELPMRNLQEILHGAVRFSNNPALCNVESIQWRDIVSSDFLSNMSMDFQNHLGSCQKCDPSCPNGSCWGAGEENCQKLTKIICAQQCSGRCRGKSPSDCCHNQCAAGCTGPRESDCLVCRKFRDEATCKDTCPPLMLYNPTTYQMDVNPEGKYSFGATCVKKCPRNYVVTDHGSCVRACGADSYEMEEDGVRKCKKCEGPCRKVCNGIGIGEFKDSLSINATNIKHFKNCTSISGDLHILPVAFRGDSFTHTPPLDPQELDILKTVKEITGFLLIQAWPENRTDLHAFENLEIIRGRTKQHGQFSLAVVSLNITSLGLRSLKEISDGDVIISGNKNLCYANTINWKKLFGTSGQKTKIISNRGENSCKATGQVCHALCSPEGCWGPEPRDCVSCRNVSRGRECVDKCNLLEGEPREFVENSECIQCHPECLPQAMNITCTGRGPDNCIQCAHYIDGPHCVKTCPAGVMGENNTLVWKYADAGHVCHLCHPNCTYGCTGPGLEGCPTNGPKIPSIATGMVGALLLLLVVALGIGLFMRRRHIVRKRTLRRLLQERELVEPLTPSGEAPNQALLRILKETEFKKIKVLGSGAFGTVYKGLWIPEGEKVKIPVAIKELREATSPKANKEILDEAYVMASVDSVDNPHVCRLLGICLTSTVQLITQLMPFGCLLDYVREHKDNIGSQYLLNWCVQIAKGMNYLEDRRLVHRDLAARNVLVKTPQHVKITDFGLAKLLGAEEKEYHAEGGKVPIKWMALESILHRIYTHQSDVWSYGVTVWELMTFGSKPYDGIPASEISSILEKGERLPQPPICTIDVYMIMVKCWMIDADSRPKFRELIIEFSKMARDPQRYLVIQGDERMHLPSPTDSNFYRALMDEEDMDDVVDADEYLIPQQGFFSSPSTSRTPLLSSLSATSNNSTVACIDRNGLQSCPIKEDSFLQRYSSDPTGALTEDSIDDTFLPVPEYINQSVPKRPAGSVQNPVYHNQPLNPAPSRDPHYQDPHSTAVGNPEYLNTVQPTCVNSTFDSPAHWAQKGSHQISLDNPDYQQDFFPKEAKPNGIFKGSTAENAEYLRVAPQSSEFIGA
# Procedure: as §1
# [3] = molecular target: T3, Ba/F3 stable cells (Homo sapiens, UniProt P00533, DUP771-773, cells depend on it); conditions: Ba/F3-EGFR H773-V774insNPH cells
# T3 construct: EC50 Ba/F3-EGFR H773-V774insNPH; other: Ba/F3-EGFR H773-V774insNPH cells, 72 h, CCK-8
# T3 sequence (P00533 with tags, fused parts or gaps DUP771-773): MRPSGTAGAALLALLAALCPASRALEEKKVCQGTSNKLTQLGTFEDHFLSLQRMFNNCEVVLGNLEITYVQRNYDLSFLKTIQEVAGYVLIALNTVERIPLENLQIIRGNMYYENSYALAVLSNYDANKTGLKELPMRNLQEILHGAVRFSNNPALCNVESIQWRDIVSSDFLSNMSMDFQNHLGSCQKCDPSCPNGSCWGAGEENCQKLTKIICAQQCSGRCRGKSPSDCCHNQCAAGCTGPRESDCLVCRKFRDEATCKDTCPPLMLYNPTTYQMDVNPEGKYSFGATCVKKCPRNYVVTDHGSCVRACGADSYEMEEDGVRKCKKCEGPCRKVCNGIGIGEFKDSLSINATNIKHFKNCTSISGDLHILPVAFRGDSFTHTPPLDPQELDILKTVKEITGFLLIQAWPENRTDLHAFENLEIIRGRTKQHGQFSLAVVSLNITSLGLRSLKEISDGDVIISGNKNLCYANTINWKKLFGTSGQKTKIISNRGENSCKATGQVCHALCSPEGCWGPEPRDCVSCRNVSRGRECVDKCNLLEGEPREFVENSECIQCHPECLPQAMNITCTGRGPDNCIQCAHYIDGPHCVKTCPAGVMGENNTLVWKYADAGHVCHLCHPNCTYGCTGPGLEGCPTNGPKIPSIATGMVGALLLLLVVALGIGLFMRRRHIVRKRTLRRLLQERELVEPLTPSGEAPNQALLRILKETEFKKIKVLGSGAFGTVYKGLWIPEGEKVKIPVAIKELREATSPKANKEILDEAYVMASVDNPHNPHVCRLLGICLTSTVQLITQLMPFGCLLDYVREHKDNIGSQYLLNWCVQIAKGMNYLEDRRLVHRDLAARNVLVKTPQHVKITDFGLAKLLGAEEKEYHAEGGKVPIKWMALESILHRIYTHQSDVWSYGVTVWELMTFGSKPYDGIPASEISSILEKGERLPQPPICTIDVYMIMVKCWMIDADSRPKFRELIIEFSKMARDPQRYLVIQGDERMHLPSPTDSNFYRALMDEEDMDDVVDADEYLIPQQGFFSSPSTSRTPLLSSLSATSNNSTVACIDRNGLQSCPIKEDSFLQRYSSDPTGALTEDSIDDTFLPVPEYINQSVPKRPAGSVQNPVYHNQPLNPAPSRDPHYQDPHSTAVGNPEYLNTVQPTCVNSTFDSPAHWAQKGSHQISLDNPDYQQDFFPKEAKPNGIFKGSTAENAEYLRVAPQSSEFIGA
# Procedure: as §1
# [4] = molecular target: T4, Ba/F3 stable cells (Homo sapiens, UniProt P00533, INS763FQEA, cells depend on it); conditions: Ba/F3-EGFR A763-Y764insFQEA cells
# T4 construct: EC50 Ba/F3-EGFR A763-Y764insFQEA; other: Ba/F3-EGFR A763-Y764insFQEA cells, 72 h, CCK-8
# T4 sequence (P00533 with tags, fused parts or gaps INS763FQEA): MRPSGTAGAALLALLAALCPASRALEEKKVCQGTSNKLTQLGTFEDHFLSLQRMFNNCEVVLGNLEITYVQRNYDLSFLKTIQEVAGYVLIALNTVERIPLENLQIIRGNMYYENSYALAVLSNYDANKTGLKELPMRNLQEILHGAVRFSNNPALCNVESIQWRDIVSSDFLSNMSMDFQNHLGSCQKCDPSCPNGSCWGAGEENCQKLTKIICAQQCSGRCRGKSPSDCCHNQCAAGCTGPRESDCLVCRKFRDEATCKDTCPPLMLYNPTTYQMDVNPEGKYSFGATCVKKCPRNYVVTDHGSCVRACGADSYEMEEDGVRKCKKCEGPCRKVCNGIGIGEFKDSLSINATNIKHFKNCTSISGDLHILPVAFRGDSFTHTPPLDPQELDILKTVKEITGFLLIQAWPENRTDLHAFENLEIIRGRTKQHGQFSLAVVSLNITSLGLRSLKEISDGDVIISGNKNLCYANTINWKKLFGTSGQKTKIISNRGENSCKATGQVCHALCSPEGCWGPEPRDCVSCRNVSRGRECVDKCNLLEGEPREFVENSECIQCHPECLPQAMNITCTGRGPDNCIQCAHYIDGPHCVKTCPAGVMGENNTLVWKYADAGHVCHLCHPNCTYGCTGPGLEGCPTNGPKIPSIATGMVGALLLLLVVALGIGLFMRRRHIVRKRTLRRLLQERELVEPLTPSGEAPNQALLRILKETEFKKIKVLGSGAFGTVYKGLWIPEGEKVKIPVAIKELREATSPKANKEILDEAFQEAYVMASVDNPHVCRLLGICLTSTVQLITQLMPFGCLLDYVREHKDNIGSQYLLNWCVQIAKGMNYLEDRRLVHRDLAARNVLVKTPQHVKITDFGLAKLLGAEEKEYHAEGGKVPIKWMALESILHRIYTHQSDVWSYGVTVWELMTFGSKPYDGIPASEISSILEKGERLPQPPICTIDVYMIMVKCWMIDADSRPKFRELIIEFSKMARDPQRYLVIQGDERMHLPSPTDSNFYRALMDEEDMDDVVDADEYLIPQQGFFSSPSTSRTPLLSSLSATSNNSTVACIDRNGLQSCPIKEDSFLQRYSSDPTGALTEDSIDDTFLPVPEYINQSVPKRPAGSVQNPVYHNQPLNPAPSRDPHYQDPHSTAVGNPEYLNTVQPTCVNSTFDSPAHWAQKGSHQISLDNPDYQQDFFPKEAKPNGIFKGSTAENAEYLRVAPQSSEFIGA
# Procedure: as §1
# [5] = molecular target: T5, Ba/F3 stable cells (Homo sapiens, UniProt P00533, T790M/L858R, cells depend on it); conditions: Ba/F3-EGFR L858R-T790M cells
# T5 construct: EC50 Ba/F3-EGFR L858R-T790M; other: Ba/F3-EGFR L858R-T790M cells, 72 h, CCK-8
# T5 sequence (P00533 whole entry T790M/L858R): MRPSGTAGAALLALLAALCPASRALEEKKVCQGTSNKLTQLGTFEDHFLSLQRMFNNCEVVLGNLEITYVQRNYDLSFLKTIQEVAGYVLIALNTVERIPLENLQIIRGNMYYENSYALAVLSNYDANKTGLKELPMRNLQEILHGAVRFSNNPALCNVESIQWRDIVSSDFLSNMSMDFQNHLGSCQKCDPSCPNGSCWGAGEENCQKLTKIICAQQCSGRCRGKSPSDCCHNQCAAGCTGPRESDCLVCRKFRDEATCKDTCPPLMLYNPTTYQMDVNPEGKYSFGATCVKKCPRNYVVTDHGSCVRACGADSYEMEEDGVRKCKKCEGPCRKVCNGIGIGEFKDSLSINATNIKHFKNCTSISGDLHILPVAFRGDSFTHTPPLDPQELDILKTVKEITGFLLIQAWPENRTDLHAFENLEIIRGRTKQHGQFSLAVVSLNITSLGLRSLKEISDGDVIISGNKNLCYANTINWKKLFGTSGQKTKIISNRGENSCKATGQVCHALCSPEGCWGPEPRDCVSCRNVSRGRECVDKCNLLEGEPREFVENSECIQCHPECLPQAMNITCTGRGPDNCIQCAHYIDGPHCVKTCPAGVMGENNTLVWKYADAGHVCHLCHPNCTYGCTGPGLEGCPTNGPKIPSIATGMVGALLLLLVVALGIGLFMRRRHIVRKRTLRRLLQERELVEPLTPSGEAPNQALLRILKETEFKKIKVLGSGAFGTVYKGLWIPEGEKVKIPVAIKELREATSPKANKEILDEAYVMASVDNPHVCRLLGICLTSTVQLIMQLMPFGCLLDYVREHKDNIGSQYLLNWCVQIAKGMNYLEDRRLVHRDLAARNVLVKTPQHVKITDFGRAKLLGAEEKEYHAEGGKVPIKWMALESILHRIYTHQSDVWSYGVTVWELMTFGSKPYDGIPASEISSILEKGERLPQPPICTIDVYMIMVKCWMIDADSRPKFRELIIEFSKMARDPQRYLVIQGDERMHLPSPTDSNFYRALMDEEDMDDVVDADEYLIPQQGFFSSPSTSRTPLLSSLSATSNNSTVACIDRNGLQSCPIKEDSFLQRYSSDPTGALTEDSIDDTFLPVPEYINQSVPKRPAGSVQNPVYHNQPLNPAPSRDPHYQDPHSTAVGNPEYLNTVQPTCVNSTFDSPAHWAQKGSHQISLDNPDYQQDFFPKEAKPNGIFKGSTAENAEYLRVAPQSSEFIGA
# Procedure: as §1
# [6] = molecular target: T6, Ba/F3 stable cells (Homo sapiens, UniProt P04626, DUP772-775, cells depend on it); conditions: Ba/F3-HER2 A775-G776insYVMA cells
# T6 construct: EC50 Ba/F3-HER2 A775-G776insYVMA; other: Ba/F3-HER2 A775-G776insYVMA cells, 72 h, CCK-8
# Procedure: as §1
Compound,EC50 [1] [nM],EC50 [2] [nM],EC50 [3] [nM],EC50 [4] [nM],EC50 [5] [nM],EC50 [6] [nM]
"C=CC(=O)N[C@H]1C[C@H](Oc2cc3c(Nc4ccccc4F)ncnc3cc2OC)C1 [Compound 77, N-(3-((4-((2-fluorophenyl)amino)-7-methoxyquinazolin-6-yl)oxy)cyclobutyl)acrylamide]",200 to 1000,> 1000,200 to 1000,≤ 200,> 1000,200 to 1000
"C=CC(=O)N1CCC(Oc2cc3c(Nc4nc5cc(Cl)ccc5o4)ncnc3cc2OC)CC1 [Compound 136, 1-(4-((4-((5-chlorobenzo[d]oxazol-2-yl)amino)-7-methoxyquinazolin-6-yl)oxy)piperidin-1-yl)prop-2-en-1-one]",> 1000,> 1000,> 1000,200 to 1000,> 1000,> 1000
"C=CC(=O)N1CCC(Oc2cc3c(Nc4ccc5c(ccn5C)c4)ncnc3cc2OC)CC1 [Compound 170, 1-(4-((7-methoxy-4-((1-methyl-1H-indol-5-yl)amino)quinazolin-6-yl)oxy)piperidin-1-yl)prop-2-en-1-one]",200 to 1000,> 1000,200 to 1000,≤ 200,≤ 200,200 to 1000
"C#CC(=O)N1CCCC(c2ccc3ncnc(Nc4ccc(Cl)c(Cl)c4F)c3c2)C1 (centres unmarked) [Compound 61, 1-(3-(4-((3,4-dichloro-2-fluorophenyl)amino)quinazolin-6-yl)piperidin-1-yl)prop-2-yn-1-one]",≤ 200,≤ 200,≤ 200,≤ 200,≤ 200,200 to 1000
"C=CC(=O)N1CCC(Oc2cc3c(Nc4ccnc5ccccc45)ncnc3cc2OC)CC1 [Compound 162, 1-(4-((7-methoxy-4-(quinolin-4-ylamino)quinazolin-6-yl)oxy)piperidin-1-yl)prop-2-en-1-one]",≤ 200,> 1000,200 to 1000,≤ 200,≤ 200,200 to 1000
"C=CC(=O)N1CC(Oc2c(OC)cc3ncnc4c3c2NC(=O)N4c2ccc(Cl)c(Cl)c2F)C1 [Compound 216, 9-((1-acryloylazetidin-3-yl)oxy)-3-(3,4-dichloro-2-fluorophenyl)-8-methoxy-1H-pyrimido[4,5,6-de]quinazolin-2(3H)-one]",≤ 200,≤ 200,≤ 200,≤ 200,≤ 200,> 1000
"C=CC(=O)N1CCC(Oc2cc3c(Nc4nccc5ccccc45)ncnc3cc2OC)CC1 [Compound 161, 1-(4-((4-(isoquinolin-1-ylamino)-7-methoxyquinazolin-6-yl)oxy)piperidin-1-yl)prop-2-en-1-one]",200 to 1000,> 1000,200 to 1000,≤ 200,200 to 1000,> 1000
"C=CC(=O)N1CCC(Oc2cc3c(Nc4cc5ccccc5cn4)ncnc3cc2OC)CC1 [Compound 159, 1-(4-((4-(isoquinolin-3-ylamino)-7-methoxyquinazolin-6-yl)oxy)piperidin-1-yl)prop-2-en-1-one]",200 to 1000,> 1000,200 to 1000,≤ 200,200 to 1000,200 to 1000
"C=CC(=O)N1CCC(Oc2cc3c(NC(C(N)=O)c4cccc(Cl)c4)ncnc3cc2OC)CC1 (centres unmarked) [Compound 127, 2-((6-((1-acryloylpiperidin-4-yl)oxy)-7-methoxyquinazolin-4-yl)amino)-2-(3-chlorophenyl)acetamide]",200 to 1000,> 1000,> 1000,≤ 200,> 1000,> 1000
"C=CC(=O)N1CCC(Oc2cc3c(NCc4cc(Cl)cc(Cl)c4)ncnc3cc2OC)CC1 [Compound 117, 1-(4-((4-((3,5-dichlorobenzyl)amino)-7-methoxyquinazolin-6-yl)oxy)piperidin-1-yl)prop-2-en-1-one]",> 1000,> 1000,> 1000,200 to 1000,200 to 1000,> 1000
"C=CC(=O)N1CCC(Oc2cc3c(C(=O)c4ccc(Cl)c(Cl)c4F)ncnc3cc2OC)CC1 [Compound 175, 1-(4-((4-(3,4-dichloro-2-fluorobenzoyl)-7-methoxyquinazolin-6-yl)oxy)piperidin-1-yl)prop-2-en-1-one]",≤ 200,200 to 1000,≤ 200,≤ 200,200 to 1000,200 to 1000
"C=CC(=O)N1CCC(Oc2cc3c(Nc4ccc5sc(C)nc5c4)ncnc3cc2OC)CC1 [Compound 155, 1-(4-((7-methoxy-4-((2-methylbenzo[d]thiazol-5-yl)amino)quinazolin-6-yl)oxy)piperidin-1-yl)prop-2-en-1-one]",> 1000,> 1000,> 1000,≤ 200,200 to 1000,200 to 1000
"C=CC(=O)NC1CC(Oc2cc3c(C(=O)NCc4ccc(F)cc4)ncnc3cc2OC)C1 (centres unmarked) [Compound 96, 6-(3-acrylamidocyclobutoxy)-N-(4-fluorobenzyl)-7-methoxyquinazoline-4-carboxamide]",> 1000,> 1000,> 1000,> 1000,> 1000,> 1000
"C=CC(=O)N1CC(c2cc3c(Nc4cccc5ccccc45)ncnc3cc2OC)C1 [Compound 4, 1-(3-(7-methoxy-4-(naphthalen-1-ylamino)quinazolin-6-yl)azetidin-1-yl)prop-2-en-1-one]",≤ 200,200 to 1000,≤ 200,≤ 200,200 to 1000,≤ 200
"C=CC(=O)N[C@H]1C[C@@H](Oc2cc3c(Nc4ccc(Cl)c(Cl)c4F)ncnc3cc2NC)C1 [Compound 103, N-((1s,3s)-3-((4-((3,4-dichloro-2-fluorophenyl)amino)-7-(methylamino)quinazolin-6-yl)oxy)cyclobutyl)acrylamide]",≤ 200,≤ 200,≤ 200,≤ 200,≤ 200,≤ 200
"C=CC(=O)N1CCC(Oc2cc3c(N[C@H](C)c4ccc(F)cc4)ncnc3cc2OC)CC1 [Compound 173, (R)-1-(4-((4-((1-(4-fluorophenyl)ethyl)amino)-7-methoxyquinazolin-6-yl)oxy)piperidin-1-yl)prop-2-en-1-one]",≤ 200,> 1000,200 to 1000,≤ 200,> 1000,> 1000
"C#CC(=O)N1CCC=C(c2cc3c(Nc4ccc(Cl)c(Cl)c4F)ncnc3cc2OC)C1 [Compound 63, 1-(5-(4-((3,4-dichloro-2-fluorophenyl)amino)-7-methoxyquinazolin-6-yl)-3,6-dihydropyridin-1(2H)-yl)prop-2-yn-1-one]",≤ 200,≤ 200,≤ 200,≤ 200,≤ 200,200 to 1000
"C=CC(=O)N[C@H]1C[C@@H](Oc2cc3c(Nc4cccc5ccccc45)ncnc3cc2OC)C1 [Compound 83, N-((1s,3s)-3-((7-methoxy-4-(naphthalen-1-ylamino)quinazolin-6-yl)oxy)cyclobutyl)acrylamide]",≤ 200,200 to 1000,≤ 200,≤ 200,200 to 1000,200 to 1000
"C=CC(=O)N1CCC(Oc2cc3c(Nc4ccc(Cl)c(Cl)c4F)ncnc3cc2OC)CC1 [Compound 133, 1-(4-((4-((3,4-dichloro-2-fluorophenyl)amino)-7-methoxyquinazolin-6-yl)oxy)piperidin-1-yl)prop-2-en-1-one]",–,–,–,–,–,≤ 200
"C=CC(=O)N1CC(c2cc3c(Nc4ccc(Cl)c(Cl)c4F)ncnc3cc2O[C@H]2CCOC2)C1 [Compound 24, (S)-1-(3-(4-((3,4-dichloro-2-fluorophenyl)amino)-7-((tetrahydrofuran-3-yl)oxy)quinazolin-6-yl)azetidin-1-yl)prop-2-en-1-one]",–,–,–,200 to 1000,–,–
